Literature values, collected in patent US20200230082A1, “TOPICAL ACETAMINOPHEN FORMULATIONS FOR ITCH RELIEF” (UNIVERSITY OF MIAMI, priority 2017, published 2020).
Where two headings read alike, the source gives them in different places.

In the case of `CC(=O)Nc1ccc(O)cc1` [acetaminophen], the Solubility % (solvent: Ethanol) is given as 37^1%, the Solubility % (solvent: PEG-400) is given as 18.9^3% and the Solubility % (solvent: Propylene Glycol) is given as 9.8^2%. For the same compound, the Solubility % (solvent: Water) was 1.7^1%.
